Tested on: buckwheat, wild (wild buckwheat, Polygonum convolvulus)
Assay: Test F preemergence
Format: in vivo
Conditions: 21 days, scale 0 to 100
Text: Seeds of plant species selected from bermudagrass (Cynodon dactylon), Surinam grass (Brachiaria decumbens), large (Lg) crabgrass (Digitaria sanguinalis), crabgrass, naked (naked crabgrass, Digitaria nuda), foxtail, green (green foxtail, Setaria viridis), johnsongrass (Sorghum halepense), kochia (Kochia scoparia), morningglory (pitted morningglory, Ipomoea lacunosa), nutsedge, purple (purple nutsedge, Cyperus rotundus), ragweed (common ragweed, Ambrosia elatior), mustard, black (black mustard, Brassica nigra), guineagrass (Panicum maximum), dallisgrass (Paspalum dilatatum), barnyardgrass (Echinochloa crus-galli), sandbur (southern sandbur, Cenchrus echinatus), sowthistle (common sowthistle, Sonchus oleraceous), Italian ryegrass (Lolium multiflorum), signalgrass (broadleaf signalgrass, Brachiaria platyphylla), dayflower (Virginia (VA) dayflower, Commelina virginica), bluegrass (annual bluegrass, Poa annua), quackgrass (Elytrigia repens), mallow (common mallow, Malva sylvestris), buckwheat, wild (wild buckwheat, Polygonum convolvulus), leafy spurge (Euphorbia esula), chickweed (common chickweed, Stellaria media), wild poinsettia (Euphorbia heterophylla), and pigweed (Amaranthus retroflexus) were planted into a blend of loam soil and sand and treated preemergence with test a chemical formulated in a non-phytotoxic solvent mixture which included a surfactant.
Treated plants and controls were maintained in a greenhouse for 21 days, after which time all species were compared to controls and visually evaluated. Plant response ratings, summarized in Table F, are based on a scale of 0 to 100 where 0 is no effect and 100 is complete control. A dash (-) response means no test result.

Measured: Plant response rating, Buckwheat, Wild

N#Cc1cccc(Oc2ncc(Cl)cn2)c1Oc1ncc(Cl)cn1 [Compound 3, 2,3-bis[(5-chloro-2-pyrimidinyl)oxy]benzonitrile]
100: 62 g ai/ha | 125 g ai/ha | 250 g ai/ha

From patent US20170190671A1, “BIS(ARYL)CATECHOL DERIVATIVES AS HERBICIDES” (E I DU PONT DE NEMOURS AND COMPANY, priority 2014, published 2017)
